What all share (format): cell-based
In one assay the target is T1, GCGR (Homo sapiens, UniProt P47871).
T1 construct: expressed in transfected cells; host or cells: HEK293 (HEK293-GCGR)
Put plainly: In vitro cell activity, cAMP production in HEK293 cells expressing GCGR. The settings on record: HEK293-GCGR cells, cAMP; read-out: GCGR (EC50). The procedure, abridged: (§1)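 Cells were plated at 4×10^5 cells/mL, and detection reagents (cAMP-d2, anti-cAMP cryptate, 1:1) were incubated 1 h at room temperature in the dark or overnight at 4 °C.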

The target in a further assay is T2, GLP-1R (Homo sapiens, UniProt P43220).
T2 construct: expressed in transfected cells; host or cells: HEK293 (HEK293-GLP-1R)
T2 sequence (P43220 24-463, species assumed): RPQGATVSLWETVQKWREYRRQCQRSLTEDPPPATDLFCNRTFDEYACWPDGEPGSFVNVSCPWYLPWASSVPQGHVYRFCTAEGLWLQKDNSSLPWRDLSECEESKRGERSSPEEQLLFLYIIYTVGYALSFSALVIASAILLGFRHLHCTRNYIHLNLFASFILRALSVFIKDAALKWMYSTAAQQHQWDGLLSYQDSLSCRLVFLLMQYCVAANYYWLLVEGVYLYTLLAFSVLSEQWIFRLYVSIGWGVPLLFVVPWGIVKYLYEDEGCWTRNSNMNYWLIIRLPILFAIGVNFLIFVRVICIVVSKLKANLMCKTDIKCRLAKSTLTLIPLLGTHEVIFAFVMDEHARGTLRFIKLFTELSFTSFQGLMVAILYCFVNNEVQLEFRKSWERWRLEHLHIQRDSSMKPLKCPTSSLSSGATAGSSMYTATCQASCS
In words: In vitro cell activity, cAMP production in HEK293 cells expressing GLP-1R. The conditions noted are these: HEK293-GLP-1R cells, cAMP; read-out: GLP-1R (EC50). The gist of the method:
as §1
On the technique in general: cAMP levels reflect the balance of adenylyl cyclase and phosphodiesterase activity.

The next assay addresses T3, GIPR (Homo sapiens, UniProt P48546).
T3 construct: expressed in transfected cells; host or cells: HEK293 (HEK293-GIPR)
T3 sequence (P48546 22-466): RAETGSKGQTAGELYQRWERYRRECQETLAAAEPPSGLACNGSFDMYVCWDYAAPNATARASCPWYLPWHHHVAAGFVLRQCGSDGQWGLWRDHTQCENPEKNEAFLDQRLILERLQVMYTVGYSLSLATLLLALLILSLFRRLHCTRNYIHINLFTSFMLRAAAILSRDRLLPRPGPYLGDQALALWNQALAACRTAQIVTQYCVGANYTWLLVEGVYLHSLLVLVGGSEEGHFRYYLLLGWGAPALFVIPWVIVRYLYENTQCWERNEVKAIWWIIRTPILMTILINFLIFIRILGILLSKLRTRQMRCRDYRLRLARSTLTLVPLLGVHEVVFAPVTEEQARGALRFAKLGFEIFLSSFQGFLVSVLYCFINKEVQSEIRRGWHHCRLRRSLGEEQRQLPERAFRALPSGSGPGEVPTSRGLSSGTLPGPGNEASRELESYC
Put plainly: In vitro cell activity, cAMP production in HEK293 cells expressing GIPR. The settings on record: HEK293-GIPR cells, cAMP; read-out: GIPR (EC50). The procedure, abridged: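 cAMP accumulation is quantified by homogeneous TR-FRET (cAMP-d2 plus anti-cAMP cryptate) in GIPR-expressing HEK293 cells seeded from a 4×10^5 cells/mL suspension and treated with compound. The signal ratio is plotted against concentration and fitted to a four-parameter curve to give EC50.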

Consider six compounds from patent EP4596574A1, “GLP-1/GCG/GIP TRIPLE-RECEPTOR AGONIST AND USE THEREOF” (Sunshine Lake Pharma Co., Ltd., priority 2022, dated 2024).

Starred links: 1 amine or outer side, 2 acyl side, 3 side chain; linkers in the order of their positions; H or OH if unused. Non-standard residues stand in square brackets, D forms with d. Residues, ends and D or L forms follow the SMILES beside them. Groups on a side chain read outwards from the residue. *: point of attachment. C18 diacid = O=C(O)CCCCCCCCCCCCCCCCC(=O)*; αMePhe(2-F) = C[C@](N)(Cc1ccccc1F)C(=O)O; γGlu = O=C(O)[C@H](CCC(=O)[*:2])N[*:1]; AEEA = NCCOCCOCC(=O)O; Aib = CC(C)(N)C(=O)O

T1 sequence (P47871 26-477, species assumed): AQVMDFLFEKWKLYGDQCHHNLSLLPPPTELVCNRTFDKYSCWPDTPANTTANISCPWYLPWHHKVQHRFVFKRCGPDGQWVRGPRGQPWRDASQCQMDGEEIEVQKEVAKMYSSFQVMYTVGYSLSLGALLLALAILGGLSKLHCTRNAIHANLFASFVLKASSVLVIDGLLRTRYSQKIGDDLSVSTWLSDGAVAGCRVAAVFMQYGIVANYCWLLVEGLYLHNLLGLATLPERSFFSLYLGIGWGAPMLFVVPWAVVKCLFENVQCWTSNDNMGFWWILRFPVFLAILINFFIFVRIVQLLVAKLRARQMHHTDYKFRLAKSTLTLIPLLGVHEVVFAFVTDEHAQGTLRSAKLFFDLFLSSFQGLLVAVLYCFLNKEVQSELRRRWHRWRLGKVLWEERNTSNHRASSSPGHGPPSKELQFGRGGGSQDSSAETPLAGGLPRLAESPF

The EC50 is the midpoint of the concentration-response curve. In the case of `CC[C@H](C)[C@H](NC(=O)[C@H](CC(C)C)NC(=O)[C@H](Cc1c[nH]c2ccccc12)NC(=O)[C@H](CCC(=O)O)NC(=O)[C@@H](NC(=O)[C@H](Cc1ccccc1)NC(=O)[C@H](CC(=O)O)NC(=O)[C@H](CCC(N)=O)NC(=O)[C@H](CCC(N)=O)NC(=O)[C@H](C)NC(=O)[C@H](CCCCNC(=O)COCCOCCNC(=O)CC[C@H](NC(=O)CCCCCCCCCCCCCCCCCCC(=O)O)C(=O)O)NC(=O)[C@H](CCC(=O)O)NC(=O)[C@H](CC(=O)O)NC(=O)[C@H](CC(C)C)NC(=O)[C@H](CC(C)C)NC(=O)[C@@H](NC(=O)[C@H](CO)NC(=O)[C@H](Cc1ccc(O)cc1)NC(=O)[C@H](CC(=O)O)NC(=O)[C@H](CO)NC(=O)[C@@H](NC(=O)[C@](C)(Cc1ccccc1F)NC(=O)[C@@H](NC(=O)CNC(=O)[C@H](CCC(N)=O)NC(=O)C(C)(C)NC(=O)[C@@H](N)Cc1ccc(O)cc1)[C@@H](C)O)[C@@H](C)O)[C@@H](C)CC)[C@@H](C)CC)C(=O)N[C@@H](C)C(=O)NCC(=O)NCC(=O)N1CCC[C@H]1C(=O)N[C@@H](CO)C(=O)N[C@@H](CO)C(=O)NCC(=O)N[C@@H](C)C(=O)N1CCC[C@H]1C(=O)N1CCC[C@H]1C(=O)N1CCC[C@H]1C(=O)N[C@@H](CO)C(=O)O` [HEC-PT69], the values for the EC50 on GCGR, at GLP-1R and at GIPR were 30.8 nM, 2.18 nM and 0.419 nM, respectively.

Take `CC[C@H](C)[C@H](NC(=O)[C@H](Cc1ccccc1)NC(=O)[C@H](C)NC(=O)[C@H](CCCNC(=N)N)NC(=O)[C@H](CCC(N)=O)NC(=O)[C@H](C)NC(=O)[C@H](CCCCNC(=O)COCCOCCNC(=O)CC[C@H](NC(=O)CCCCCCCCCCCCCCCCCCC(=O)O)C(=O)O)NC(=O)[C@H](CCC(=O)O)NC(=O)[C@H](CC(=O)O)NC(=O)[C@H](CC(C)C)NC(=O)[C@H](CC(C)C)NC(=O)[C@@H](NC(=O)[C@H](CO)NC(=O)[C@H](Cc1ccc(O)cc1)NC(=O)[C@H](CC(=O)O)NC(=O)[C@H](CO)NC(=O)[C@@H](NC(=O)[C@](C)(Cc1ccccc1F)NC(=O)[C@@H](NC(=O)CNC(=O)[C@H](CCC(N)=O)NC(=O)C(C)(C)NC(=O)[C@@H](N)Cc1ccc(O)cc1)[C@@H](C)O)[C@@H](C)O)[C@@H](C)CC)C(=O)N[C@@H](CCC(=O)O)C(=O)N[C@@H](Cc1ccc(O)cc1)C(=O)N[C@@H](CC(C)C)C(=O)N[C@@H](CC(C)C)C(=O)N[C@@H](C)C(=O)NCC(=O)NCC(=O)N1CCC[C@H]1C(=O)N[C@@H](CO)C(=O)N[C@@H](CO)C(=O)NCC(=O)N[C@@H](C)C(=O)N1CCC[C@H]1C(=O)N1CCC[C@H]1C(=O)N1CCC[C@H]1C(=O)N[C@@H](CO)C(=O)O` [HEC-PT95]: the EC50 came out at 0.682 nM at GCGR, 0.156 nM at GLP-1R and 0.237 nM on GIPR.

For the compound `CC[C@H](C)[C@H](NC(=O)[C@H](Cc1ccccc1)NC(=O)[C@H](C)NC(=O)[C@H](CCC(N)=O)NC(=O)[C@H](CCC(N)=O)NC(=O)[C@H](C)NC(=O)[C@H](CCCCNC(=O)COCCOCCNC(=O)CC[C@H](NC(=O)CCCCCCCCCCCCCCCCCCC(=O)O)C(=O)O)NC(=O)[C@H](CCC(=O)O)NC(=O)[C@H](CC(=O)O)NC(=O)[C@H](CC(C)C)NC(=O)[C@H](CC(C)C)NC(=O)[C@@H](NC(=O)[C@H](CO)NC(=O)[C@H](Cc1ccc(O)cc1)NC(=O)[C@H](CC(=O)O)NC(=O)[C@H](CO)NC(=O)[C@@H](NC(=O)[C@](C)(Cc1ccccc1F)NC(=O)[C@@H](NC(=O)CNC(=O)[C@H](Cc1c[nH]cn1)NC(=O)C(C)(C)NC(=O)[C@@H](N)Cc1ccc(O)cc1)[C@@H](C)O)[C@@H](C)O)[C@@H](C)CC)C(=O)N[C@@H](CCC(=O)O)C(=O)N[C@@H](Cc1ccc(O)cc1)C(=O)N[C@@H](CC(C)C)C(=O)N[C@@H](CC(C)C)C(=O)N[C@@H](C)C(=O)NCC(=O)NCC(=O)N1CCC[C@H]1C(=O)N[C@@H](CO)C(=O)N[C@@H](CO)C(=O)NCC(=O)N[C@@H](C)C(=O)N1CCC[C@H]1C(=O)N1CCC[C@H]1C(=O)N1CCC[C@H]1C(=O)N[C@@H](CO)C(=O)O` [HEC-PT81], the EC50 on GCGR came to 0.382 nM; on GLP-1R, 0.409 nM; on GIPR it was 0.132 nM.

For `CC[C@H](C)[C@H](NC(=O)[C@H](CCCCN)NC(=O)[C@H](CC(=O)O)NC(=O)[C@H](CCCCNC(=O)COCCOCCNC(=O)CC[C@H](NC(=O)CCCCCCCCCCCCCCCCC(=O)O)C(=O)O)NC(=O)[C@H](CC(C)C)NC(=O)[C@@H](NC(=O)[C@H](CO)NC(=O)[C@H](Cc1ccc(O)cc1)NC(=O)[C@H](CC(=O)O)NC(=O)[C@H](CO)NC(=O)[C@@H](NC(=O)[C@](C)(Cc1ccccc1F)NC(=O)[C@@H](NC(=O)CNC(=O)[C@H](CCC(N)=O)NC(=O)C(C)(C)NC(=O)[C@@H](N)Cc1ccc(O)cc1)[C@@H](C)O)[C@@H](C)O)[C@@H](C)CC)C(=O)N[C@@H](C)C(=O)N[C@@H](CCC(N)=O)C(=O)N[C@@H](CCC(N)=O)C(=O)N[C@@H](C)C(=O)N[C@@H](Cc1ccccc1)C(=O)N[C@H](C(=O)N[C@@H](CCC(=O)O)C(=O)N[C@@H](Cc1ccc(O)cc1)C(=O)N[C@@H](CC(C)C)C(=O)N[C@@H](CC(C)C)C(=O)N[C@@H](C)C(=O)NCC(=O)NCC(=O)N1CCC[C@H]1C(=O)N[C@@H](CO)C(=O)N[C@@H](CO)C(=O)NCC(=O)N[C@@H](C)C(=O)N1CCC[C@H]1C(=O)N1CCC[C@H]1C(=O)N1CCC[C@H]1C(=O)N[C@@H](CO)C(N)=O)[C@@H](C)CC` [HEC-PT122] (H-Y[Aib]QGT[αMePhe(2-F)]TSDYSILK([AEEA-γGlu-C18 diacid])DKIAQQAFIEYLLAGGPSSGAPPPS-NH2), the EC50 on GCGR came out at 0.162 nM; at GLP-1R, 0.0893 nM; on GIPR it was 0.0276 nM.

Turning to `CC[C@H](C)[C@H](NC(=O)[C@H](Cc1ccccc1)NC(=O)[C@H](C)NC(=O)[C@H](CCCNC(=N)N)NC(=O)[C@H](CCC(N)=O)NC(=O)[C@H](C)NC(=O)[C@H](CCCCNC(=O)COCCOCCNC(=O)CC[C@H](NC(=O)CCCCCCCCCCCCCCCCCCC(=O)O)C(=O)O)NC(=O)[C@H](CCC(=O)O)NC(=O)[C@H](CC(=O)O)NC(=O)[C@H](CC(C)C)NC(=O)[C@H](CC(C)C)NC(=O)[C@@H](NC(=O)[C@H](CO)NC(=O)[C@H](Cc1ccc(O)cc1)NC(=O)[C@H](CC(=O)O)NC(=O)[C@H](CO)NC(=O)[C@@H](NC(=O)[C@](C)(Cc1ccccc1F)NC(=O)[C@@H](NC(=O)CNC(=O)[C@H](Cc1c[nH]cn1)NC(=O)C(C)(C)NC(=O)[C@@H](N)Cc1ccc(O)cc1)[C@@H](C)O)[C@@H](C)O)[C@@H](C)CC)C(=O)N[C@@H](CCC(=O)O)C(=O)N[C@@H](Cc1ccc(O)cc1)C(=O)N[C@@H](CC(C)C)C(=O)N[C@@H](CC(C)C)C(=O)N[C@@H](CCC(=O)O)C(=O)NCC(=O)NCC(=O)N1CCC[C@H]1C(=O)N[C@@H](CO)C(=O)N[C@@H](CO)C(=O)NCC(=O)N[C@@H](C)C(=O)N1CCC[C@H]1C(=O)N1CCC[C@H]1C(=O)N1CCC[C@H]1C(=O)N[C@@H](CO)C(=O)O` [HEC-PT84], the EC50 at GCGR came out at 0.306 nM; on GLP-1R, 0.291 nM; on GIPR it was 0.232 nM.

For the compound `CC[C@H](C)[C@H](NC(=O)[C@H](CCCCN)NC(=O)[C@H](CC(=O)O)NC(=O)[C@H](CCCCNC(=O)COCCOCCNC(=O)CC[C@H](NC(=O)CCCCCCCCCCCCCCCCC(=O)O)C(=O)O)NC(=O)[C@H](CC(C)C)NC(=O)[C@@H](NC(=O)[C@H](CO)NC(=O)[C@H](Cc1ccc(O)cc1)NC(=O)[C@H](CC(=O)O)NC(=O)[C@H](CO)NC(=O)[C@@H](NC(=O)[C@](C)(Cc1ccccc1F)NC(=O)[C@@H](NC(=O)CNC(=O)[C@H](CCC(N)=O)NC(=O)C(C)(C)NC(=O)[C@@H](N)Cc1ccc(O)cc1)[C@@H](C)O)[C@@H](C)O)[C@@H](C)CC)C(=O)N[C@@H](C)C(=O)N[C@@H](CCC(N)=O)C(=O)NC(C)(C)C(=O)N[C@@H](C)C(=O)N[C@@H](Cc1ccccc1)C(=O)N[C@H](C(=O)N[C@@H](CCC(=O)O)C(=O)N[C@@H](Cc1ccc(O)cc1)C(=O)N[C@@H](CC(C)C)C(=O)N[C@@H](CC(C)C)C(=O)N[C@@H](C)C(=O)NCC(=O)NCC(=O)N1CCC[C@H]1C(=O)N[C@@H](CO)C(=O)N[C@@H](CO)C(=O)NCC(=O)N[C@@H](C)C(=O)N1CCC[C@H]1C(=O)N1CCC[C@H]1C(=O)N1CCC[C@H]1C(=O)N[C@@H](CO)C(N)=O)[C@@H](C)CC` [HEC-PT139] (H-Y[Aib]QGT[αMePhe(2-F)]TSDYSILK([AEEA-γGlu-C18 diacid])DKIAQ[Aib]AFIEYLLAGGPSSGAPPPS-NH2), the EC50 at GCGR amounted to 0.0821 nM; at GLP-1R it was 0.158 nM; on GIPR, 0.0359 nM.
